# In PubChem BioAssay (NCI):
#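 Results reflect a 48-hour exposure of cells in 96-well plates to compound at five concentrations. TGI denotes the concentration required for complete inhibition of growth.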 Where a SMILES comes first, the peptide text is derived from it. Bridges are numbered along the chain shown (N, C = ends). [ ]: non-standard residue; d: D form. The star is where a group is joined. ξ: configuration not given here. PhAc = O=C(Cc1ccccc1)*; ξP = O=C(O)C1CCCN1
# Test system: 786-0 renal
# Experiment: growth of human tumour cells (NCI), 48 h
row,SMILES,TGI [µM]
1,Cc1ccc2c(=O)cc(-c3ccc(Cl)cc3)[nH]c2n1,> 100
2,CCOP(=O)(OCC)/C(=C\n1c(=S)[nH]c2cc(C)ccc21)C(=O)OC,> 100
3,O=C1C2=Cc3ccccc3OC2(O)Oc2cc(O)cc(O)c21 (stereo not given),> 100
4,COc1ccc(-c2cc(-c3ccccc3)nc(N)c2-c2ccc3ccccc3c2)cc1,3.1
5,O=C(Cc1ccccc1)N[C@@H]1COC(=O)C2CCCN2C(=O)[C@@H]2CCCN2C1=O (stereo not given in full) (PhAc-[dS]-Pro-[ξP]; ester 1-C),> 100

# Test system: A498 renal
# Experiment: growth of human tumour cells (NCI), 48 h
row,SMILES,TGI [µM]
1,Cc1ccc2c(=O)cc(-c3ccc(Cl)cc3)[nH]c2n1,> 100
2,CCOP(=O)(OCC)/C(=C\n1c(=S)[nH]c2cc(C)ccc21)C(=O)OC,> 100
3,O=C1C2=Cc3ccccc3OC2(O)Oc2cc(O)cc(O)c21 (stereo not given),> 100
4,COc1ccc(-c2cc(-c3ccccc3)nc(N)c2-c2ccc3ccccc3c2)cc1,5.08
5,O=C(Cc1ccccc1)N[C@@H]1COC(=O)C2CCCN2C(=O)[C@@H]2CCCN2C1=O (stereo not given in full) (PhAc-[dS]-Pro-[ξP]; ester 1-C),> 100

# Test system: A549 NSCLC
# Experiment: growth of human tumour cells (NCI), 48 h
row,SMILES,TGI [µM]
1,Cc1ccc2c(=O)cc(-c3ccc(Cl)cc3)[nH]c2n1,> 100
2,CCOP(=O)(OCC)/C(=C\n1c(=S)[nH]c2cc(C)ccc21)C(=O)OC,> 100
3,O=C1C2=Cc3ccccc3OC2(O)Oc2cc(O)cc(O)c21 (stereo not given),> 100
4,COc1ccc(-c2cc(-c3ccccc3)nc(N)c2-c2ccc3ccccc3c2)cc1,5.39
5,O=C(Cc1ccccc1)N[C@@H]1COC(=O)C2CCCN2C(=O)[C@@H]2CCCN2C1=O (stereo not given in full) (PhAc-[dS]-Pro-[ξP]; ester 1-C),> 100

# Test system: ACHN renal
# Experiment: growth of human tumour cells (NCI), 48 h
row,SMILES,TGI [µM]
1,Cc1ccc2c(=O)cc(-c3ccc(Cl)cc3)[nH]c2n1,> 100
2,CCOP(=O)(OCC)/C(=C\n1c(=S)[nH]c2cc(C)ccc21)C(=O)OC,> 100
3,O=C1C2=Cc3ccccc3OC2(O)Oc2cc(O)cc(O)c21 (stereo not given),> 100
4,COc1ccc(-c2cc(-c3ccccc3)nc(N)c2-c2ccc3ccccc3c2)cc1,4.77
5,O=C(Cc1ccccc1)N[C@@H]1COC(=O)C2CCCN2C(=O)[C@@H]2CCCN2C1=O (stereo not given in full) (PhAc-[dS]-Pro-[ξP]; ester 1-C),> 100

# Test system: BT-549 breast
# Experiment: growth of human tumour cells (NCI), 48 h
row,SMILES,TGI [µM]
1,CCOP(=O)(OCC)/C(=C\n1c(=S)[nH]c2cc(C)ccc21)C(=O)OC,> 100
2,O=C1C2=Cc3ccccc3OC2(O)Oc2cc(O)cc(O)c21 (stereo not given),> 100
3,COc1ccc(-c2cc(-c3ccccc3)nc(N)c2-c2ccc3ccccc3c2)cc1,3.09

# Test system: CAKI-1 renal
# Experiment: growth of human tumour cells (NCI), 48 h
row,SMILES,TGI [µM]
1,Cc1ccc2c(=O)cc(-c3ccc(Cl)cc3)[nH]c2n1,> 65.9
2,CCOP(=O)(OCC)/C(=C\n1c(=S)[nH]c2cc(C)ccc21)C(=O)OC,> 100
3,O=C1C2=Cc3ccccc3OC2(O)Oc2cc(O)cc(O)c21 (stereo not given),> 100
4,COc1ccc(-c2cc(-c3ccccc3)nc(N)c2-c2ccc3ccccc3c2)cc1,15.1
5,O=C(Cc1ccccc1)N[C@@H]1COC(=O)C2CCCN2C(=O)[C@@H]2CCCN2C1=O (stereo not given in full) (PhAc-[dS]-Pro-[ξP]; ester 1-C),> 100

# Test system: CCRF-CEM leukemia
# Experiment: growth of human tumour cells (NCI), 48 h
row,SMILES,TGI [µM]
1,Cc1ccc2c(=O)cc(-c3ccc(Cl)cc3)[nH]c2n1,> 100
2,O=C1C2=Cc3ccccc3OC2(O)Oc2cc(O)cc(O)c21 (stereo not given),> 100
3,COc1ccc(-c2cc(-c3ccccc3)nc(N)c2-c2ccc3ccccc3c2)cc1,> 100
4,O=C(Cc1ccccc1)N[C@@H]1COC(=O)C2CCCN2C(=O)[C@@H]2CCCN2C1=O (stereo not given in full) (PhAc-[dS]-Pro-[ξP]; ester 1-C),> 100

# Test system: COLO 205 colon
# Experiment: growth of human tumour cells (NCI), 48 h
row,SMILES,TGI [µM]
1,CCOP(=O)(OCC)/C(=C\n1c(=S)[nH]c2cc(C)ccc21)C(=O)OC,> 100
2,O=C1C2=Cc3ccccc3OC2(O)Oc2cc(O)cc(O)c21 (stereo not given),> 100
3,COc1ccc(-c2cc(-c3ccccc3)nc(N)c2-c2ccc3ccccc3c2)cc1,3.21
4,O=C(Cc1ccccc1)N[C@@H]1COC(=O)C2CCCN2C(=O)[C@@H]2CCCN2C1=O (stereo not given in full) (PhAc-[dS]-Pro-[ξP]; ester 1-C),> 100

# Test system: DU-145 prostate
# Experiment: growth of human tumour cells (NCI), 48 h
row,SMILES,TGI [µM]
1,Cc1ccc2c(=O)cc(-c3ccc(Cl)cc3)[nH]c2n1,> 55.4
2,CCOP(=O)(OCC)/C(=C\n1c(=S)[nH]c2cc(C)ccc21)C(=O)OC,> 100
3,O=C1C2=Cc3ccccc3OC2(O)Oc2cc(O)cc(O)c21 (stereo not given),> 100
4,O=C(Cc1ccccc1)N[C@@H]1COC(=O)C2CCCN2C(=O)[C@@H]2CCCN2C1=O (stereo not given in full) (PhAc-[dS]-Pro-[ξP]; ester 1-C),> 100

# Test system: EKVX NSCLC
# Experiment: growth of human tumour cells (NCI), 48 h
row,SMILES,TGI [µM]
1,Cc1ccc2c(=O)cc(-c3ccc(Cl)cc3)[nH]c2n1,> 100
2,CCOP(=O)(OCC)/C(=C\n1c(=S)[nH]c2cc(C)ccc21)C(=O)OC,> 100
3,O=C1C2=Cc3ccccc3OC2(O)Oc2cc(O)cc(O)c21 (stereo not given),> 100
4,COc1ccc(-c2cc(-c3ccccc3)nc(N)c2-c2ccc3ccccc3c2)cc1,3.66
5,O=C(Cc1ccccc1)N[C@@H]1COC(=O)C2CCCN2C(=O)[C@@H]2CCCN2C1=O (stereo not given in full) (PhAc-[dS]-Pro-[ξP]; ester 1-C),> 100

# Test system: HCC-2998 colon
# Experiment: growth of human tumour cells (NCI), 48 h
row,SMILES,TGI [µM]
1,Cc1ccc2c(=O)cc(-c3ccc(Cl)cc3)[nH]c2n1,> 63
2,CCOP(=O)(OCC)/C(=C\n1c(=S)[nH]c2cc(C)ccc21)C(=O)OC,> 100
3,O=C1C2=Cc3ccccc3OC2(O)Oc2cc(O)cc(O)c21 (stereo not given),> 100
4,COc1ccc(-c2cc(-c3ccccc3)nc(N)c2-c2ccc3ccccc3c2)cc1,3.29
5,O=C(Cc1ccccc1)N[C@@H]1COC(=O)C2CCCN2C(=O)[C@@H]2CCCN2C1=O (stereo not given in full) (PhAc-[dS]-Pro-[ξP]; ester 1-C),> 100

# Test system: HCT-116 colon
# Experiment: growth of human tumour cells (NCI), 48 h
row,SMILES,TGI [µM]
1,Cc1ccc2c(=O)cc(-c3ccc(Cl)cc3)[nH]c2n1,> 32.1
2,CCOP(=O)(OCC)/C(=C\n1c(=S)[nH]c2cc(C)ccc21)C(=O)OC,> 100
3,O=C1C2=Cc3ccccc3OC2(O)Oc2cc(O)cc(O)c21 (stereo not given),> 100
4,COc1ccc(-c2cc(-c3ccccc3)nc(N)c2-c2ccc3ccccc3c2)cc1,2.5
5,O=C(Cc1ccccc1)N[C@@H]1COC(=O)C2CCCN2C(=O)[C@@H]2CCCN2C1=O (stereo not given in full) (PhAc-[dS]-Pro-[ξP]; ester 1-C),> 100

# Test system: HCT-15 colon
# Experiment: growth of human tumour cells (NCI), 48 h
row,SMILES,TGI [µM]
1,Cc1ccc2c(=O)cc(-c3ccc(Cl)cc3)[nH]c2n1,> 41.3
2,CCOP(=O)(OCC)/C(=C\n1c(=S)[nH]c2cc(C)ccc21)C(=O)OC,> 100
3,COc1ccc(-c2cc(-c3ccccc3)nc(N)c2-c2ccc3ccccc3c2)cc1,2.92
4,O=C(Cc1ccccc1)N[C@@H]1COC(=O)C2CCCN2C(=O)[C@@H]2CCCN2C1=O (stereo not given in full) (PhAc-[dS]-Pro-[ξP]; ester 1-C),> 100

# Test system: HL-60(TB) leukemia
# Experiment: growth of human tumour cells (NCI), 48 h
row,SMILES,TGI [µM]
1,Cc1ccc2c(=O)cc(-c3ccc(Cl)cc3)[nH]c2n1,8.8
2,CCOP(=O)(OCC)/C(=C\n1c(=S)[nH]c2cc(C)ccc21)C(=O)OC,> 100
3,O=C(Cc1ccccc1)N[C@@H]1COC(=O)C2CCCN2C(=O)[C@@H]2CCCN2C1=O (stereo not given in full) (PhAc-[dS]-Pro-[ξP]; ester 1-C),> 100

# Test system: HOP-62 NSCLC
# Experiment: growth of human tumour cells (NCI), 48 h
row,SMILES,TGI [µM]
1,Cc1ccc2c(=O)cc(-c3ccc(Cl)cc3)[nH]c2n1,> 100
2,CCOP(=O)(OCC)/C(=C\n1c(=S)[nH]c2cc(C)ccc21)C(=O)OC,> 100
3,O=C1C2=Cc3ccccc3OC2(O)Oc2cc(O)cc(O)c21 (stereo not given),> 100
